In one experiment the test system is insulin-antibody. The experiment in a line: insulin-antibody binding assay. On the procedure:
N^α,A1,N^ε,B29 (BOC)2 insulin, 537 mg, […], was dissolved in 500 ml DMSO. FMB-Gly-OAS, 120 mg, 390 mmole in 20 ml DMSO, and 24.5 mg, 390 mmole in 2.5 ml DMSO , and 4-ethyl morpholine, 100 mg, 870 mmole in 10 ml DMSO, were added, and the reaction was allowed to remain at rom temperature for eighteen hours. The reaction was monitored by RP-HPLC until completion. One pure product was obtained, Rt=26 minutes . The eluting solvents were A, 0.1% TFA in water; B, 0.1% TFA in acetonitrile. Elution was made from 25% B to 80% in 45 minutes. The solution was lyophilized, and 50 ml neat TFA was added for five minutes, and then evaporated. The product reacted in an insulin-antibody binding assay.

The target in another experiment is T1, substance P receptor (Rattus norvegicus, UniProt P14600).
T1 construct: from tissue; host or cells: rat brain (per the earlier reading)
The experiment in a line: competitive binding assay, substance P receptor, rat brain.

T1 sequence (P14600 whole entry): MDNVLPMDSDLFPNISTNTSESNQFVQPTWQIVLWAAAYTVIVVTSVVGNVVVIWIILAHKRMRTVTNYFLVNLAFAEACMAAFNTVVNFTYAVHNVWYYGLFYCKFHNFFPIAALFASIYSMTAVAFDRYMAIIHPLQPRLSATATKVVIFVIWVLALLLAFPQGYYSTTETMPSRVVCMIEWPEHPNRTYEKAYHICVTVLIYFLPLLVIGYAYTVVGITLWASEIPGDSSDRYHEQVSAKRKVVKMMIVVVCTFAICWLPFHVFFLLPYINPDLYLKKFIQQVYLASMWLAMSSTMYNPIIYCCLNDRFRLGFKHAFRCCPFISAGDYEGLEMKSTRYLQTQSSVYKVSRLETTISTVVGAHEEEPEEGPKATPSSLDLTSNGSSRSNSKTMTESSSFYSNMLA

Take “FMB-Gly-Insulin: Insulin acylated with FMB-Gly active ester from N^α,A1,N^ε,B29 (BOC)2 insulin, then TFA deprotected”: the “reaction in insulin-antibody binding assay” value with insulin-antibody is given as “reacted”.

By Ki is commonly meant a dissociation constant, usually derived from enzyme kinetics or from competition with a known ligand. High values mean a looser hold on the target, low ones a stronger hold on the target. “N^αFMBArgProLysProGlnGlnPhePheGlyLeuMetNH2 [Compound 29]”: the Ki on substance P receptor was determined as 1 nM.
